Test results from US8921108B2, “Differentiated human liver cell cultures and their use in bioartificial liver systems” (Academisch Ziekenhuis Bij de Universiteit van Amsterdam, priority 2009, dated 2014).
Marks after values point to notes of the source that are not given here.

Experiments:
Format in all cases: cell-based, human
HepaRG cells [1] = assay: 15N urea enrichment (conversion of ammonia into urea) in HepaRG monolayer cultures; settings: for 15N urea enrichment: 1 mM CG in preincubation and in testmedium (++)
Protocol: For testing, the cells are seeded in 6-well and 24-well culture plates (Corning) in HepaRG media with different FBS batches or other differences in medium composition. After a 2 weeks proliferation phase, 2% of DMSO will be added to half of the cultures. After another 2 weeks of culturing, the confluence and morphology of the cultures will be assessed microscopically. Furthermore the +DMSO and −DMSO cell cultures in the 24-well plates will be tested for biochemical activity, i.e. urea production, ammonia elimination and protein content. The cultured cells are washed twice using phosphate buffered saline (PBS, NBPI International) and then incubated with test medium consisting of HepaRG culture medium supplemented with 1.5 mM ^15NH4Cl (Sigma), 2.75 mM D-galactose (Sigma), 2 mM ornithine hydrochloride (Sigma) and 2 mM L-lactate (Sigma). Medium samples are taken after 1 hr from the culture wells, as a reference, and after 24 hours. At the end of the test period the cells are washed three times using PBS and stored at −20° C. for protein determination. From the changes in concentration at t=1 hr and 24 hr of urea and ammonia an activity per hour and per mg protein/well is calculated. Quality of the cell-loaded bioreactors, measured by hepatocyte function at the start of the treatment, will be compared with values of primary hepatocytes that have been tested extensively in vitro in the past.
^15N Urea: Single and Double labelled urea is measured in the test medium samples using mass-spectrometry.
(§1) The HepaRG cells are cultured as indicated above in 24 well in presence or absence of 1 mM CG during the last 5 days. Next the cells are tested as indicated above in presence or absence of CG during 24 hours. To determine the conversion of ammonia into urea, the ^15N urea enrichment (single and double labeled) is measured in the test samples using mass-spectrometry. Similarly, HepG2 and cBAL111 cells were tested for their response to CG.

HepaRG cells [2] = assay: Urea production of HepaRG monolayer cultures
Protocol: For testing, the cells are seeded in 6-well and 24-well culture plates (Corning) in HepaRG media with different FBS batches or other differences in medium composition. After a 2 weeks proliferation phase, 2% of DMSO will be added to half of the cultures. After another 2 weeks of culturing, the confluence and morphology of the cultures will be assessed microscopically. Furthermore the +DMSO and −DMSO cell cultures in the 24-well plates will be tested for biochemical activity, i.e. urea production, ammonia elimination and protein content. […] Medium samples are taken after 1 hr from the culture wells, as a reference, and after 24 hours. At the end of the test period the cells are washed three times using PBS and stored at −20° C. for protein determination. From the changes in concentration at t=1 hr and 24 hr of urea and ammonia an activity per hour and per mg protein/well is calculated.
(§2) Urea: Urea concentrations of test medium samples are determined using the blood urea nitrogen test of Sigma Chemical Co according to the instructions of the manufacturer.
as §1

HepaRG cells [3] = assay: AMC-BAL bioreactor functionality test of HepaRG cells
Protocol: One liter of HepaRG medium containing 75 ml of viable HepaRG cells is injected under sterile conditions into an AMC-BAL bioreactor (cf. Flendrig et al.^15) through three loading ports. […] To ensure optimal cell attachment and an even cell distribution, bioreactors are rotated 340° (back and forth) along the longitudinal axis at 1 revolution/min. After this attachment period, dead and unattached cells are removed by flushing 500 mL of fresh culture medium through the bioreactor at 150 mL/min. From then on bioreactors are perfused with 1.5 L recirculating culture medium at 150 mL/min. The medium is refreshed every three days. The bioreactors are cultured in HepaRG medium for 14 days. […] At least one week prior to clinical application, 1 mM CG (Sigma) is added to the media to enhance the urea cycle. The bioreactors are tested every culture week and prior to clinical application for sterility and function. Laboratory model AMC-BAL bioreactors, e.g. of a different scale, are produced in essentially the same way as described above. These laboratory model bioreactors are used e.g. for clinical testing in animal models, such as rats with acute liver failure.
Thirdly, the culture medium is replaced by 1500 ml test medium. […] At first 700 ml test medium is flushed through the bioreactor followed by recirculation of 800 ml test medium during 24 hours. […] From the changes in concentration an activity per hour and per billion cells seeded is calculated.

HepG2 cells = assay: Urea production of HepG2 cells in monolayer, response to CG
Protocol: as §2, §1

HepaRG cells [4] = assay: RT-PCR mRNA levels of hepatic genes in HepaRG cells from AMC-BAL bioreactor
cBAL111 cells = assay: Urea production of cBAL111 cells in monolayer, response to CG
Protocol: as §2, §1

[5] = Bioreactor −DMSO +CG versus Monolayer + DMSO − CG
[6] = Bioreactor −DMSO +CG versus Monolayer − DMSO − CG
[7] = HepaRG in AMC-BAL bioreactor, 13 days, −DMSO, 1 mM CG
[8] = 1 mM CG in preincubation and in testmedium (++)
[9] = 1 mM CG only during preincubation (+−)

NC(=O)N[C@@H](CCC(=O)O)C(=O)O [CG, carbamoyl glutamate]
15N urea enrichment (HepaRG cells [1]; HepaRG + DMSO): 7.8 ± 2.4 % of total urea produced
15N urea enrichment (HepaRG cells [1]; HepaRG − DMSO): 24.4 ± 4.1 % of total urea produced
increase of % of urea of the total urea produced from ammonia (HepaRG cells [1]; HepaRG −DMSO cells, CG treatment): four-fold
instantaneous effect of CG on urea production (HepaRG cells [2]): negligible
Urea production (HepaRG cells [2]; HepaRG + DMSO, 1 mM CG in preincubation and in testmedium (++)): 13.7 ± 4.4 nmol/h/mg protein
Urea production (HepaRG cells [2]; HepaRG + DMSO, 1 mM CG only during preincubation (+−)): 11.0 ± 5.3 nmol/h/mg protein
Urea production (HepaRG cells [2]; HepaRG + DMSO, 1 mM CG only during test (−+)): 4.9 ± 4.2 nmol/h/mg protein
Urea production (HepaRG cells [2]; HepaRG − DMSO, 1 mM CG in preincubation and in testmedium (++)): 9.5 ± 4.2 nmol/h/mg protein
Urea production (HepaRG cells [2]; HepaRG − DMSO, 1 mM CG only during preincubation (+−)): 9.6 ± 3.3 nmol/h/mg protein
Urea production (HepaRG cells [2]; HepaRG − DMSO, 1 mM CG only during test (−+)): 5.9 ± 2.4 nmol/h/mg protein
increase of urea production by CG treatment (HepaRG cells [2]; all cell lines (HepG2, cBAL111, HepaRG), 1 mM CG): more than two-fold
time increased urea production is maintained upon withdrawal of the CG (HepaRG cells [2]; cells exposed to carbamoyl glutamate for at least 5 days): at least 24 hrs
% improvement by bioreactor: 15N urea enrichment (HepaRG cells [3]; [5]): 157* %
% improvement by bioreactor: Ammonia elimination (HepaRG cells [3]; [5]): 134%
% improvement by bioreactor: ApoA1 synthesis (HepaRG cells [3]; [5]): 113%
% improvement by bioreactor: Lactate consumption (HepaRG cells [3]; [5]): conversion*
% improvement by bioreactor: Urea production (HepaRG cells [3]; [5]): 187* %
% improvement by bioreactor: 15N urea enrichment (HepaRG cells [3]; [6]): 418* %
% improvement by bioreactor: Ammonia elimination (HepaRG cells [3]; [6]): 199* %
% improvement by bioreactor: ApoA1 synthesis (HepaRG cells [3]; [6]): 154%
% improvement by bioreactor: Lactate consumption (HepaRG cells [3]; [6]): conversion*
% improvement by bioreactor: Urea production (HepaRG cells [3]; [6]): 262* %
15N urea enrichment (HepaRG cells [3]; [7]): 25.1 ± 3.7 % of total urea
Ammonia elimination (HepaRG cells [3]; [7]): 143 ± 105 nmol/h/mg protein
ApoA1 synthesis (HepaRG cells [3]; [7]): 1.2 ± 0.9 ug/h/mg protein
Lactate consumption (HepaRG cells [3]; [7]): 42.1 ± 14.7 nmol/h/mg protein
Urea production (HepaRG cells [3]; [7]): 13.1 ± 1.2 nmol/h/mg protein
Urea production (HepG2 cells; [8]): 2.4 ± 1.6 nmol/h/mg protein
Urea production (HepG2 cells; [9]): 2.5 ± 1.4 nmol/h/mg protein
Urea production (HepG2 cells; 1 mM CG only during test (−+)): 1.8 ± 1.1 nmol/h/mg protein
% improvement by bioreactor: Alb mRNA level (HepaRG cells [4]; [5]): 313* %
% improvement by bioreactor: ArgI mRNA level (HepaRG cells [4]; [5]): 460* %
% improvement by bioreactor: ArgII mRNA level (HepaRG cells [4]; [5]): 42%
% improvement by bioreactor: CPS mRNA level (HepaRG cells [4]; [5]): 4000* %
% improvement by bioreactor: CYP2B6 mRNA level (HepaRG cells [4]; [5]): 49%
% improvement by bioreactor: CYP3A4 mRNA level (HepaRG cells [4]; [5]): 148%
% improvement by bioreactor: GS mRNA level (HepaRG cells [4]; [5]): 714%
% improvement by bioreactor: HNF4 mRNA level (HepaRG cells [4]; [5]): 198* %
% improvement by bioreactor: PXR mRNA level (HepaRG cells [4]; [5]): 633%
% improvement by bioreactor: Alb mRNA level (HepaRG cells [4]; [6]): 109%
% improvement by bioreactor: ArgI mRNA level (HepaRG cells [4]; [6]): 155%
% improvement by bioreactor: ArgII mRNA level (HepaRG cells [4]; [6]): 54%
% improvement by bioreactor: CPS mRNA level (HepaRG cells [4]; [6]): 145%
% improvement by bioreactor: CYP2B6 mRNA level (HepaRG cells [4]; [6]): 863* %
% improvement by bioreactor: CYP3A4 mRNA level (HepaRG cells [4]; [6]): 1063* %
% improvement by bioreactor: GS mRNA level (HepaRG cells [4]; [6]): 300* %
% improvement by bioreactor: HNF4 mRNA level (HepaRG cells [4]; [6]): 187* %
% improvement by bioreactor: PXR mRNA level (HepaRG cells [4]; [6]): 437%
Alb mRNA level (HepaRG cells [4]; [7]): 72.1 ± 26.0 % of in vivo
ArgI mRNA level (HepaRG cells [4]; [7]): 22.9 ± 10.4 % of in vivo
ArgII mRNA level (HepaRG cells [4]; [7]): 305 ± 143 % of in vivo
CPS mRNA level (HepaRG cells [4]; [7]): 44.1 ± 32.2 % of in vivo
CYP2B6 mRNA level (HepaRG cells [4]; [7]): 30.2 ± 15.9 % of in vivo
CYP3A4 mRNA level (HepaRG cells [4]; [7]): 102 ± 49.4 % of in vivo
GS mRNA level (HepaRG cells [4]; [7]): 643 ± 395 % of in vivo
HNF4 mRNA level (HepaRG cells [4]; [7]): 386 ± 216 % of in vivo
PXR mRNA level (HepaRG cells [4]; [7]): 82.5 ± 68.9 % of in vivo
Urea production (cBAL111 cells; [8]): 9.4 ± 8.4 nmol/h/mg protein
Urea production (cBAL111 cells; [9]): 10.8 ± 6.2 nmol/h/mg protein
Urea production (cBAL111 cells; 1 mM CG only during test (−+)): 8.3 ± 8.3 nmol/h/mg protein
